According to patent publication US8247211B2, “Glycopeptide antibiotics” (American Cyanamid Company, priority 2001, dated 2012):
In brackets after ≈: the same amount, converted by molar mass.

Tests used:
Assay in all cases: In vitro antibacterial evaluation: minimum inhibitory concentration (MIC), broth dilution method
Assay type in all cases: cell-based
Enterococcus sp. = system: Enterococcus sp.
Method in brief: (§1)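 MIC by broth dilution in Mueller-Hinton II medium following NCCLS M7-A2. Inoculum was 5×10^5 CFU/mL and antibiotic was tested over 64-0.06 μg/mL. Gram-positive panel included clinical isolates resistant to methicillin, penicillin and/or vancomycin.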

Staphylococcus sp. = conditions: broth dilution, 18 hours at 35° C.
Method in brief: as §1

Escherichia coli = system: Escherichia coli
Method in brief: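 NCCLS M7-A2 broth dilution; Muller-Hinton II […]; 5×10^5 CFU/mL; 64-0.06 μg/mL. MIC = lowest concentration with no growth.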

Streptococcus sp. = system: Streptococcus sp.
Method in brief: as §1

CC(c1ccccc1)C1NC(=O)CNC(=O)C(CO)NC(=O)C(C(O)C2CNC(=N)N2C2OC(CO)C(O)C(O)C2O)NC(=O)C(C(O)C2CNC(=N)N2)NC(=O)C(Cc2ccc(OC3OC(CO)C(OC4OC5COC(c6ccc7ccccc7c6)OC5C(O)C4O)C(O)C3O)cc2)NC1=O (stereo not drawn) [Example 145, Cyclo[glycyl-β-methylphenylalanyl-O-[4-O-[4,6-O-(2-naphthylmethylene)hexopyranosyl]-hexopyranosyl]tyrosyl-3-(2-iminoimidazolidin-4-yl)seryl-3(3-hexopyranosyl-2-iminoimidazolidin-4-yl)serylseryl]]
MIC Enterococcus faecalis (ATCC 29212) (Enterococcus sp.; strain ATCC 29212): 1 µg/mL (≈ 0.698 µM)
MIC Enterococcus faecalis (GC 2242) (Enterococcus sp.; strain GC 2242): <0.5 µg/mL
MIC Enterococcus faecium (GC 2243) (Enterococcus sp.; strain GC 2243): 1 µg/mL (≈ 0.698 µM)
MIC Enterococcus faecalis (GC 2691) (Enterococcus sp.; strain GC 2691): 1 µg/mL (≈ 0.698 µM)
MIC Enterococcus faecalis (GC 3059) (Enterococcus sp.; strain GC 3059): 1 µg/mL (≈ 0.698 µM)
MIC Enterococcus faecalis (GC 4552) (Enterococcus sp.; strain GC 4552): 1 µg/mL (≈ 0.698 µM)
MIC Enterococcus faecalis (GC 4553) (Enterococcus sp.; strain GC 4553): 2 µg/mL (≈ 1.4 µM)
MIC Enterococcus faecalis (GC 4554) (Enterococcus sp.; strain GC 4554): 1 µg/mL (≈ 0.698 µM)
MIC Enterococcus faecium (GC 4556) (Enterococcus sp.; strain GC 4556): 1 µg/mL (≈ 0.698 µM)
MIC Enterococcus faecium (GC 4557) (Enterococcus sp.; strain GC 4557): 1 µg/mL (≈ 0.698 µM)
MIC Enterococcus avium (GC 4558) (Enterococcus sp.; strain GC 4558): 1 µg/mL (≈ 0.698 µM)
MIC Enterococcus faecalis (GC 6189) (Enterococcus sp.; strain GC 6189): 1 µg/mL (≈ 0.698 µM)
MIC Coagulase Negative Staphylococcus (GC 4547) (Staphylococcus sp.; 5×10^5 CFU/mL): 1 µg/mL (≈ 0.698 µM)
MIC Coagulase Negative Staphylococcus (GC 4548) (Staphylococcus sp.; 5×10^5 CFU/mL): <0.5 µg/mL
MIC Coagulase Negative Staphylococcus (GC 4549) (Staphylococcus sp.; 5×10^5 CFU/mL): 1 µg/mL (≈ 0.698 µM)
MIC Coagulase Negative Staphylococcus (GC 4551) (Staphylococcus sp.; 5×10^5 CFU/mL): <0.5 µg/mL
MIC Coagulase Negative Staphylococcus (GC 6257) (Staphylococcus sp.; 5×10^5 CFU/mL): 0.5 µg/mL (≈ 0.349 µM)
MIC Staphylococcus aureus (ATCC 29213) (Staphylococcus sp.; 5×10^5 CFU/mL): 1 µg/mL (≈ 0.698 µM)
MIC Staphylococcus aureus (GC 1131) (Staphylococcus sp.; 5×10^5 CFU/mL): <0.5 µg/mL
MIC Staphylococcus aureus (GC 3051) (Staphylococcus sp.; 5×10^5 CFU/mL): 1 µg/mL (≈ 0.698 µM)
MIC Staphylococcus aureus (GC 3053) (Staphylococcus sp.; 5×10^5 CFU/mL): 1 µg/mL (≈ 0.698 µM)
MIC Staphylococcus aureus (GC 4541) (Staphylococcus sp.; 5×10^5 CFU/mL): <0.5 µg/mL
MIC Staphylococcus aureus (GC 4542) (Staphylococcus sp.; 5×10^5 CFU/mL): <0.5 µg/mL
MIC Staphylococcus aureus (GC 4544) (Staphylococcus sp.; 5×10^5 CFU/mL): 1 µg/mL (≈ 0.698 µM)
MIC Staphylococcus aureus (GC 4545) (Staphylococcus sp.; 5×10^5 CFU/mL): 1 µg/mL (≈ 0.698 µM)
MIC Staphylococcus aureus-SMITH (GC 4543) (Staphylococcus sp.; 5×10^5 CFU/mL): <0.5 µg/mL
MIC Staphylococcus haemolyticus (GC 4546) (Staphylococcus sp.; 5×10^5 CFU/mL): <0.5 µg/mL
MIC Staphylococcus aureus (ATCC 29213) (Staphylococcus sp.; strain ATCC 29213): 1 µg/mL (≈ 0.698 µM)
MIC Staphylococcus aureus (GC 1131) (Staphylococcus sp.; strain GC 1131): <0.5 µg/mL
MIC Staphylococcus aureus (GC 3051) (Staphylococcus sp.; strain GC 3051): 1 µg/mL (≈ 0.698 µM)
MIC Staphylococcus aureus (GC 3053) (Staphylococcus sp.; strain GC 3053): 1 µg/mL (≈ 0.698 µM)
MIC Staphylococcus aureus (GC 4541) (Staphylococcus sp.; strain GC 4541): <0.5 µg/mL
MIC Staphylococcus aureus (GC 4542) (Staphylococcus sp.; strain GC 4542): <0.5 µg/mL
MIC Staphylococcus aureus-SMITH (GC 4543) (Staphylococcus sp.; strain GC 4543): <0.5 µg/mL
MIC Staphylococcus aureus (GC 4544) (Staphylococcus sp.; strain GC 4544): 1 µg/mL (≈ 0.698 µM)
MIC Staphylococcus aureus (GC 4545) (Staphylococcus sp.; strain GC 4545): 1 µg/mL (≈ 0.698 µM)
MIC Staphylococcus haemolyticus (GC 4546) (Staphylococcus sp.; strain GC 4546): <0.5 µg/mL
MIC Coagulase Negative Staphylococcus (GC 4547) (Staphylococcus sp.; strain GC 4547): 1 µg/mL (≈ 0.698 µM)
MIC Coagulase Negative Staphylococcus (GC 4548) (Staphylococcus sp.; strain GC 4548): <0.5 µg/mL
MIC Coagulase Negative Staphylococcus (GC 4549) (Staphylococcus sp.; strain GC 4549): 1 µg/mL (≈ 0.698 µM)
MIC Coagulase Negative Staphylococcus (GC 4551) (Staphylococcus sp.; strain GC 4551): <0.5 µg/mL
MIC Coagulase Negative Staphylococcus (GC 6257) (Staphylococcus sp.; strain GC 6257): 0.5 µg/mL (≈ 0.349 µM)
MIC Escherichia coli (ATCC 25922) (Escherichia coli; strain ATCC 25922): 64 µg/mL (≈ 44.6 µM)
MIC Escherichia coli (GC 4559) (Escherichia coli; strain GC 4559): 32 µg/mL (≈ 22.3 µM)
MIC Escherichi coli (GC 4560) (Escherichia coli; strain GC 4560): <0.5 µg/mL
MIC Streptococcus pneumoniae (ATCC 6301) (Streptococcus sp.; strain ATCC 6301): <0.5 µg/mL
MIC Streptococcus pneumoniae (GC 1894) (Streptococcus sp.; strain GC 1894): <0.5 µg/mL
MIC Streptococcus pyogenes (GC 4563) (Streptococcus sp.; strain GC 4563): 1 µg/mL (≈ 0.698 µM)
MIC Streptococcus agalactiae (GC 4564) (Streptococcus sp.; strain GC 4564): <0.5 µg/mL
MIC Streptococcus pneumoniae (GC 4565) (Streptococcus sp.; strain GC 4565): <0.5 µg/mL
